In patent publication US11357779B2 (G1 Therapeutics, Inc., priority 2018, dated 2022):
Like-named read-outs stand apart in the source and are kept apart here.

Assay: Plasma concentration versus time of Compound I and metabolite Compound III in patients dosed QD or BID with Form B of Compound II plus fulvestrant
Type: in vivo, human
Details: human, plasma, oral, 650 mg; for concentration at 8 day: Day 8; for concentration at 15 day: Day 15; for concentration at 22 day: Day 22; for concentration at 0 h: Day 29, 0.0 h; for concentration at 1 h: Day 29, 1.0 h; for concentration at 2 h: Day 29, 2.0 h; for concentration at 3 h: Day 29, 3.0 h; for concentration at 4 h: Day 29, 4.0 h; for concentration at 6 h: Day 29, 6.0 h
Excerpt: Patients were enrolled into 1 of 2 parallel, independently operating, dose-escalation dosing cohorts with Form B of Compound II administered continuously either once daily (QD) or twice daily (BID) with food with fixed-dose fulvestrant (intramuscularly every 14 days for the first three injections and then every 28 days). Pre- or perimenopausal patients also received goserelin for the duration of study treatment. A […] agonist was started at least 28 days before the first dose of Form B, and those patients who were taking another LHRH agonist were switched to goserelin on Day 1. Patients were split into […] cohorts providing once a day (QD) dosing of 200 mg, 300 mg, 400 mg, 500 mg, or 650 mg of Form B, or twice a day (BID) dosing of 100 mg, 150 mg, or 200 mg of Form B. The second dose in BID cohorts was not administered in the evening until at least 12 hours after the initial morning dose of Form B. The dosing cohorts for Form B of Compound II are provided in Table 1.
Blood samples were collected at the following time points relative to the morning dose of Form B at Day 1 and at Day 29: pre-dose (0 hour) and 1, 2, 3, 4, 6, 8, 10, 12 (prior to the evening dose in the BID cohorts), and 24 (prior to the next day's morning dose) hours after dosing. A 5-minute time window was allowed for samples collected between the predose and 3 hours after Form B dosing. A 15-minute window was allowed for samples collected between 4 to 12 hours after Form B dosing. A 1-hour window was allowed for the sample collected 24 hours after Form B dosing. Blood samples for Compound I PK trough levels were collected pre-dose at Day 8, Day 15, and Day 22 prior to the morning administration of Compound I. Plasma concentrations of Compound I and its metabolite, Compound III, were measured using validated methods.
Analysis of plasma concentration versus time data for calculation of standard pharmacokinetic (PK) parameters following oral administration was conducted using Phoenix WinNonlin version 6.3 using actual blood sampling times.

[1] = Cohort 5, 650 mg QD of Form B, read-out: Trough Compound I Concentration, Max
[2] = Cohort 5, 650 mg QD of Form B, read-out: Trough Compound I Concentration, Mean
[3] = Cohort 5, 650 mg QD of Form B, read-out: Trough Compound I Concentration, Median
[4] = Cohort 5, 650 mg QD of Form B, read-out: Trough Compound I Concentration, Min
[5] = Cohort 5, 650 mg QD of Form B, read-out: Compound I Concentration, Max
[6] = Cohort 5, 650 mg QD of Form B, read-out: Compound I Concentration, Mean
[7] = Cohort 5, 650 mg QD of Form B, read-out: Compound I Concentration, Median
[8] = Cohort 5, 650 mg QD of Form B, read-out: Compound I Concentration, Min

SMILES: CC(C)N1CCN(c2ccc(Nc3ncc4cc5n(c4n3)C3(CCCCC3)CNC5=O)nc2)CC1 [Compound I, 2′-((5-(4-isopropylpiperazin-1-yl)pyridin-2-yl)amino)-7′,8′-dihydro-6′H-spiro[cyclohexane-1,9′-pyrazino[1′,2′:1,5]pyrrolo[2,3-d]pyrimidin]-6′-one]
- concentration at 8 h (650 mg QD of Form B, Day 1, 8.0 h, Median, read-out: Compound I Concentration): 60.3 ng/mL
- concentration at 10 h (650 mg QD of Form B, Day 1, 10.0 h, Mean, read-out: Compound I Concentration): 48.4 ng/mL
- concentration at 10 h (650 mg QD of Form B, Day 1, 10.0 h, Median, read-out: Compound I Concentration): 47.9 ng/mL
- concentration at 12 h (650 mg QD of Form B, Day 1, 12.0 h, Mean, read-out: Compound I Concentration): 37.4 ng/mL
- concentration at 12 h (650 mg QD of Form B, Day 1, 12.0 h, Median, read-out: Compound I Concentration): 37.3 ng/mL
- concentration at 24 h (650 mg QD of Form B, Day 1, […], Mean, read-out: Compound I Concentration): 17.1 ng/mL
- concentration at 24 h (650 mg QD of Form B, Day 1, […], Median, read-out: Compound I Concentration): 16 ng/mL
- concentration at 8 day [1]: 43.9 ng/mL
- concentration at 8 day [2]: 28.9 ng/mL
- concentration at 8 day [3]: 28.3 ng/mL
- concentration at 8 day [4]: 17 ng/mL
- concentration at 15 day [1]: 30.7 ng/mL
- concentration at 15 day [2]: 25.7 ng/mL
- concentration at 15 day [3]: 27.4 ng/mL
- concentration at 15 day [4]: 19.1 ng/mL
- concentration at 22 day [1]: 43.7 ng/mL
- concentration at 22 day [2]: 30.3 ng/mL
- concentration at 22 day [3]: 24 ng/mL
- concentration at 22 day [4]: 23.3 ng/mL
- concentration at 0 h [5]: 28.9 ng/mL
- concentration at 0 h [6]: 20.9 ng/mL
- concentration at 0 h [7]: 22.5 ng/mL
- concentration at 0 h [8]: 11.4 ng/mL
- concentration at 1 h [5]: 29.6 ng/mL
- concentration at 1 h [6]: 20.9 ng/mL
- concentration at 1 h [7]: 20.9 ng/mL
- concentration at 1 h [8]: 12.1 ng/mL
- concentration at 2 h [5]: 34.9 ng/mL
- concentration at 2 h [6]: 25.9 ng/mL
- concentration at 2 h [7]: 25.9 ng/mL
- concentration at 2 h [8]: 16.8 ng/mL
- concentration at 3 h [5]: 39.5 ng/mL
- concentration at 3 h [6]: 28.4 ng/mL
- concentration at 3 h [7]: 28.4 ng/mL
- concentration at 3 h [8]: 17.2 ng/mL
- concentration at 4 h [5]: 43.8 ng/mL
- concentration at 4 h [6]: 33.1 ng/mL
- concentration at 4 h [7]: 33.1 ng/mL
- concentration at 4 h [8]: 22.3 ng/mL
- concentration at 6 h [5]: 79.3 ng/mL
- concentration at 6 h [6]: 58.8 ng/mL
- concentration at 6 h [7]: 58.8 ng/mL
- concentration at 6 h [8]: 38.2 ng/mL
- concentration at 8 h (Cohort 5, 650 mg QD of Form B, Day 29, 8.0 h, read-out: Compound I Concentration, Max): 88.7 ng/mL
- concentration at 8 h (Cohort 5, 650 mg QD of Form B, Day 29, 8.0 h, read-out: Compound I Concentration, Mean): 66 ng/mL
- concentration at 8 h (Cohort 5, 650 mg QD of Form B, Day 29, 8.0 h, read-out: Compound I Concentration, Median): 66 ng/mL
- concentration at 8 h (Cohort 5, 650 mg QD of Form B, Day 29, 8.0 h, read-out: Compound I Concentration, Min): 43.2 ng/mL
- concentration at 10 h (Cohort 5, 650 mg QD of Form B, Day 29, 10.0 h, read-out: Compound I Concentration, Max): 78.2 ng/mL
- concentration at 10 h (Cohort 5, 650 mg QD of Form B, Day 29, 10.0 h, read-out: Compound I Concentration, Mean): 58.1 ng/mL
- concentration at 10 h (Cohort 5, 650 mg QD of Form B, Day 29, 10.0 h, read-out: Compound I Concentration, Median): 58.1 ng/mL
- concentration at 10 h (Cohort 5, 650 mg QD of Form B, Day 29, 10.0 h, read-out: Compound I Concentration, Min): 37.9 ng/mL
- concentration at 12 h (Cohort 5, 650 mg QD of Form B, Day 29, 12.0 h, read-out: Compound I Concentration, Max): 63.2 ng/mL
- concentration at 12 h (Cohort 5, 650 mg QD of Form B, Day 29, 12.0 h, read-out: Compound I Concentration, Mean): 46.3 ng/mL
- concentration at 12 h (Cohort 5, 650 mg QD of Form B, Day 29, 12.0 h, read-out: Compound I Concentration, Median): 46.3 ng/mL
- concentration at 12 h (Cohort 5, 650 mg QD of Form B, Day 29, 12.0 h, read-out: Compound I Concentration, Min): 29.4 ng/mL
- concentration at 24 h (Cohort 5, 650 mg QD of Form B, Day 29, […], read-out: Compound I Concentration, Max): 27.8 ng/mL
- concentration at 24 h (Cohort 5, 650 mg QD of Form B, Day 29, […], read-out: Compound I Concentration, Mean): 24.3 ng/mL
- concentration at 24 h (Cohort 5, 650 mg QD of Form B, Day 29, […], read-out: Compound I Concentration, Median): 24.3 ng/mL
- concentration at 24 h (Cohort 5, 650 mg QD of Form B, Day 29, […], read-out: Compound I Concentration, Min): 20.7 ng/mL
